Results as given in patent publication US12642799B2, “Composition and method for treating COVID-19” (University of South Florida, priority 2021, dated 2026).

Key:
TNFα, IL-6 = type: cell-based
[1] = tested on: SARS CoV-2 (variants) infected Calu3 cells; type: cell-based

Molecule | inhibition of inflammatory cytokine production (TNFα, IL-6 mRNA) (TNFα, IL-6) | inhibition of viral replication (SARS CoV2 N protein mRNA) [1]
sitagliptin monohydrate phosphate | equally effective | equally effective
N[C@@H](CC(=O)N1CCn2c(nnc2C(F)(F)F)C1)Cc1cc(F)c(F)cc1F [sitagliptin] | equally effective | equally effective
